How the values were obtained:
[1] = system: U2932; test: Antiproliferative activity against human U2932 cells in culture medium with 10% lipid-reduced serum after 4 days in presence of palmitate by ATP-Glo assay; type: functional, cell-based; settings: U2932, 96 h
[2] = target: Cytochrome P450 1A2 (Homo sapiens, UniProt P05177); test: Inhibition human CYP1A2; type: ADME
[3] = system: LP-1; test: Antiproliferative activity against human LP-1 cells in culture medium with 10% lipid-reduced serum after 4 days in presence of palmitate by ATP-Glo assay; type: functional, cell-based; settings: LP-1, 96 h
[4] = system: HL-60; test: Antiproliferative activity against human HL60 cells in culture medium with 10% lipid-reduced serum after 4 days by ATP-Glo assay; type: functional, cell-based; settings: HL-60, 96 h
[5] = system: HT-29; test: Antiproliferative activity against human HT-29 cells in culture medium with 10% lipid-reduced serum after 4 days by ATP-Glo assay; type: functional, cell-based; settings: HT-29, 96 h
[6] = system: LNCaP; test: Antiproliferative activity against human LNCAP cells in culture medium with 10% lipid-reduced serum after 4 days by ATP-Glo assay; type: functional, cell-based; settings: 96 h
[7] = system: U2932; test: Antiproliferative activity against human U2932 cells in culture medium with 10% lipid-reduced serum after 4 days by ATP-Glo assay; type: functional, cell-based; settings: U2932, 96 h
[8] = system: A2780; test: Antiproliferative activity against human A2780 cells in culture medium with 10% lipid-reduced serum after 4 days by MTT assay; type: functional, cell-based; settings: A2780, 96 h
[9] = Oral bioavailability in mouse at 10 mg/kg; type: ADME, organism-based; settings: in vivo
[10] = system: NCI-H929; test: Antiproliferative activity against human NCI-H929 cells in culture medium with 10% lipid-reduced serum after 4 days by ATP-Glo assay; type: functional, cell-based; settings: NCI-H929, 96 h
[11] = Cmax in mouse at 10 mg/kg, po; type: ADME, organism-based; design: dose 10 mg/kg, route oral; settings: in vivo
[12] = Half life in mouse at 10 mg/kg, po; type: ADME, organism-based; settings: in vivo
[13] = target: Cytochrome P450 2D6 (Homo sapiens, UniProt P10635); test: Inhibition of human CYP2D6; type: ADME
Sequence of Cytochrome P450 2D6 (P10635 whole entry): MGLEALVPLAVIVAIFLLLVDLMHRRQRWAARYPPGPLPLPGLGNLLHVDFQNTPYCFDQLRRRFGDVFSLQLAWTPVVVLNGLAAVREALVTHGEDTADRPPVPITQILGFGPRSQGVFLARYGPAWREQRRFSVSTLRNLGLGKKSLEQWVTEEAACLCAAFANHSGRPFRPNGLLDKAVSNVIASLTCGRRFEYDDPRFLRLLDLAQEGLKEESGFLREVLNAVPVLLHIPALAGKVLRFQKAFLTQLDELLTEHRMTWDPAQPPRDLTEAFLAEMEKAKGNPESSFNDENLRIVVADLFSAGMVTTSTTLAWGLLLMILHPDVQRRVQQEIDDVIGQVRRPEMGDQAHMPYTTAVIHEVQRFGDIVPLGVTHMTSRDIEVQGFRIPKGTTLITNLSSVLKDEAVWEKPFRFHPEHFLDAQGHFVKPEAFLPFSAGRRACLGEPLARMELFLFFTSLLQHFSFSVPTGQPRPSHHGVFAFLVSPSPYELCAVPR

[14] = AUC in mouse at 10 mg/kg, po; type: ADME, organism-based; settings: in vivo
[15] = system: K562; test: Antiproliferative activity against human K562 cells in culture medium with 10% lipid-reduced serum after 4 days in presence of palmitate by ATP-Glo assay; type: functional, cell-based; settings: K562, 96 h
[16] = system: A549; test: Antiproliferative activity against human A549 cells in culture medium with 10% lipid-reduced serum after 4 days by ATP-Glo assay; type: functional, cell-based; settings: A549, 96 h
[17] = system: PC-3M; test: Antiproliferative activity against human PC3M cells in culture medium with 10% lipid-reduced serum after 4 days by ATP-Glo assay; type: functional, cell-based; settings: 96 h
[18] = system: OCI-Ly1; test: Antiproliferative activity against human OCI-LY1 cells in culture medium with 10% lipid-reduced serum after 4 days in presence of palmitate by ATP-Glo assay; type: functional, cell-based; settings: OCI-Ly1, 96 h
[19] = Stability in mouse plasma; type: ADME, cell-free
[20] = Antiproliferative activity against human LL cells in culture medium with 10% lipid-reduced serum after 4 days by ATP-Glo assay; type: functional, cell-based; settings: 96 h
[21] = Stability in mouse microsomes; type: ADME, Microsome
[22] = Antiproliferative activity against human MM1R cells in culture medium with 10% lipid-reduced serum after 4 days in presence of palmitate by ATP-Glo assay; type: functional, cell-based; settings: MM.1R, 96 h
[23] = target: Cytochrome P450 2C9 (Homo sapiens, UniProt P11712); test: Inhibition of human CYP2C9; type: ADME
Sequence of Cytochrome P450 2C9 (P11712 whole entry): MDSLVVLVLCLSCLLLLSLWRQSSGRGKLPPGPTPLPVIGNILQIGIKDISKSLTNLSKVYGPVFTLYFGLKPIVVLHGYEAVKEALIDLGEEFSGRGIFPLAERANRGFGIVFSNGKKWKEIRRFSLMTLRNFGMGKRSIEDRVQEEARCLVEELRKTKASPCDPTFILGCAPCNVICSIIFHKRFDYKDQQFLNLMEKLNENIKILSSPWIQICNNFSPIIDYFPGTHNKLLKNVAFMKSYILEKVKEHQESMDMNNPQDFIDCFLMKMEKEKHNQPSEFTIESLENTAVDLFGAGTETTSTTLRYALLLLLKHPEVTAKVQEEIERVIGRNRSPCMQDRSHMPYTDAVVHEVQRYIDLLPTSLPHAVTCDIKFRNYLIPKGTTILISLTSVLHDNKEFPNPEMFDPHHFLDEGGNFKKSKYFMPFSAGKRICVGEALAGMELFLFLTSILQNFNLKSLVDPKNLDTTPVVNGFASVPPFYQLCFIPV

[24] = system: MV4-11; test: Antiproliferative activity against human MV4-11 cells in culture medium with 10% lipid-reduced serum after 4 days by ATP-Glo assay; type: functional, cell-based; settings: MV4-11, 96 h
[25] = Tmax in mouse at 10 mg/kg, po; type: ADME, organism-based; settings: in vivo
[26] = target: Cytochrome P450 2C19 (Homo sapiens, UniProt P33261); test: Inhibition of human CYP2C19; type: ADME
[27] = system: OCI-Ly1; test: Antiproliferative activity against human OCI-LY1 cells in culture medium with 10% lipid-reduced serum after 4 days by ATP-Glo assay; type: functional, cell-based; settings: OCI-Ly1, 96 h
[28] = system: NCI-H929; test: Antiproliferative activity against human NCI-H929 cells in culture medium with 10% lipid-reduced serum after 4 days in presence of palmitate by ATP-Glo assay; type: functional, cell-based; settings: NCI-H929, 96 h
[29] = system: BT-20; test: Antiproliferative activity against human BT20 cells in culture medium with 10% lipid-reduced serum after 4 days in presence of palmitate by ATP-Glo assay; type: functional, cell-based; settings: BT-20, 96 h
[30] = Permeability in human Caco2 cells; type: ADME, cell-based; settings: Caco-2, read-out: permeability
[31] = system: NCI-H460; test: Antiproliferative activity against human NCI-H460 cells in culture medium with 10% lipid-reduced serum after 4 days by ATP-Glo assay; type: functional, cell-based; settings: NCI-H460, 96 h
[32] = Protein binding in human plasma; type: ADME, cell-free; settings: read-out: PPB (converted)
[33] = system: K562; test: Antiproliferative activity against human K562 cells in culture medium with 10% lipid-reduced serum after 4 days by ATP-Glo assay; type: functional, cell-based; settings: K562, 96 h
[34] = Antiproliferative activity against human MM1R cells in culture medium with 10% lipid-reduced serum after 4 days by ATP-Glo assay; type: functional, cell-based; settings: MM.1R, 96 h
[35] = system: U-266; test: Antiproliferative activity against human U266 cells in culture medium with 10% lipid-reduced serum after 4 days in presence of palmitate by ATP-Glo assay; type: functional, cell-based; settings: U-266, 96 h
[36] = target: Cytochrome P450 3A4 (Homo sapiens, UniProt P08684); test: Inhibition of human CYP3A4; type: ADME
Sequence of Cytochrome P450 3A4 (P08684 whole entry): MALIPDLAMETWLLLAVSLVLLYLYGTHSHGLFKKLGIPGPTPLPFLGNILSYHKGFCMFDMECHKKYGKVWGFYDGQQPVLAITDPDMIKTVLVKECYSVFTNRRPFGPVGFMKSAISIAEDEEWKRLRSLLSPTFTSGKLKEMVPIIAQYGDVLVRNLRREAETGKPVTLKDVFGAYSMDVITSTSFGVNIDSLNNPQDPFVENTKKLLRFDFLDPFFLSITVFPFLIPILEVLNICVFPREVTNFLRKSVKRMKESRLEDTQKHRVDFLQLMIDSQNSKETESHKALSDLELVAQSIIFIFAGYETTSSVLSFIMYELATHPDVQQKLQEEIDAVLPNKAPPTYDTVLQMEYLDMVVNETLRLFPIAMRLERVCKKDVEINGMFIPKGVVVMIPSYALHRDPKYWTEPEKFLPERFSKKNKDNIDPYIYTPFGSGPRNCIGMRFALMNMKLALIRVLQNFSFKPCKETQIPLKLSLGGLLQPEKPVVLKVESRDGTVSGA

[37] = system: MDA-MB-468; test: Antiproliferative activity against human MDA-MB-468 cells in culture medium with 10% lipid-reduced serum after 4 days by ATP-Glo assay; type: functional, cell-based; settings: MDA-MB-468, 96 h
[38] = Antiproliferative activity against human LL cells in culture medium with 10% lipid-reduced serum after 4 days in presence of palmitate by ATP-Glo assay; type: functional, cell-based; settings: 96 h
[39] = system: HL-60; test: Antiproliferative activity against human HL60 cells in culture medium with 10% lipid-reduced serum after 4 days in presence of palmitate by ATP-Glo assay; type: functional, cell-based; settings: HL-60, 96 h
[40] = system: MDA-MB-468; test: Antiproliferative activity against human MDA-MB-468 cells in culture medium with 10% lipid-reduced serum after 4 days in presence of palmitate by ATP-Glo assay; type: functional, cell-based; settings: MDA-MB-468, 96 h
[41] = system: NCI-H460; test: Antiproliferative activity against human NCI-H460 cells in culture medium with 10% lipid-reduced serum after 4 days in presence of palmitate by ATP-Glo assay; type: functional, cell-based; settings: NCI-H460, 96 h
[42] = system: A549; test: Antiproliferative activity against human A549 cells in culture medium with 10% lipid-reduced serum after 4 days in presence of palmitate by ATP-Glo assay; type: functional, cell-based; settings: A549, 96 h
[43] = system: A2780; test: Antiproliferative activity against human A2780 cells in culture medium with 10% lipid-reduced serum after 4 days in presence of palmitate by MTT assay; type: functional, cell-based; settings: A2780, 96 h
[44] = system: MV4-11; test: Antiproliferative activity against human MV4-11 cells in culture medium with 10% lipid-reduced serum after 4 days in presence of palmitate by ATP-Glo assay; type: functional, cell-based; settings: MV4-11, 96 h
[45] = target: Cytochrome P450 2C8 (Homo sapiens, UniProt P10632); test: Inhibition of human CYP2C8; type: ADME
Sequence of Cytochrome P450 2C8 (P10632 whole entry): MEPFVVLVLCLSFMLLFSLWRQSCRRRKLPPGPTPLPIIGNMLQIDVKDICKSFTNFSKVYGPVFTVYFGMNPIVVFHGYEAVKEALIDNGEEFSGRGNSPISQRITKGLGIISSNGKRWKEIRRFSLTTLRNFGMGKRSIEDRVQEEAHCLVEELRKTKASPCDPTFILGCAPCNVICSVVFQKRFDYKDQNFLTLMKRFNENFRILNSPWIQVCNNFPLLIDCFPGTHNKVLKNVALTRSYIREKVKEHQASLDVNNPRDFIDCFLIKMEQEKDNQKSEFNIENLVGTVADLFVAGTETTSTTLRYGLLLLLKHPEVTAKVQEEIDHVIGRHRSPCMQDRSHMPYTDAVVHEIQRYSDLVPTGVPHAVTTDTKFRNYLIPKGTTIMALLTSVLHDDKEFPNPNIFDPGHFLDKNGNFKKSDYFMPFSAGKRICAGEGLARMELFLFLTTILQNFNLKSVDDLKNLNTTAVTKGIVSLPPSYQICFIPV

[46] = Protein binding in mouse plasma; type: ADME, cell-free; settings: read-out: PPB (converted)
[47] = target: Fatty acid synthase (Homo sapiens, UniProt P49327)
Sequence of Fatty acid synthase (P49327 whole entry): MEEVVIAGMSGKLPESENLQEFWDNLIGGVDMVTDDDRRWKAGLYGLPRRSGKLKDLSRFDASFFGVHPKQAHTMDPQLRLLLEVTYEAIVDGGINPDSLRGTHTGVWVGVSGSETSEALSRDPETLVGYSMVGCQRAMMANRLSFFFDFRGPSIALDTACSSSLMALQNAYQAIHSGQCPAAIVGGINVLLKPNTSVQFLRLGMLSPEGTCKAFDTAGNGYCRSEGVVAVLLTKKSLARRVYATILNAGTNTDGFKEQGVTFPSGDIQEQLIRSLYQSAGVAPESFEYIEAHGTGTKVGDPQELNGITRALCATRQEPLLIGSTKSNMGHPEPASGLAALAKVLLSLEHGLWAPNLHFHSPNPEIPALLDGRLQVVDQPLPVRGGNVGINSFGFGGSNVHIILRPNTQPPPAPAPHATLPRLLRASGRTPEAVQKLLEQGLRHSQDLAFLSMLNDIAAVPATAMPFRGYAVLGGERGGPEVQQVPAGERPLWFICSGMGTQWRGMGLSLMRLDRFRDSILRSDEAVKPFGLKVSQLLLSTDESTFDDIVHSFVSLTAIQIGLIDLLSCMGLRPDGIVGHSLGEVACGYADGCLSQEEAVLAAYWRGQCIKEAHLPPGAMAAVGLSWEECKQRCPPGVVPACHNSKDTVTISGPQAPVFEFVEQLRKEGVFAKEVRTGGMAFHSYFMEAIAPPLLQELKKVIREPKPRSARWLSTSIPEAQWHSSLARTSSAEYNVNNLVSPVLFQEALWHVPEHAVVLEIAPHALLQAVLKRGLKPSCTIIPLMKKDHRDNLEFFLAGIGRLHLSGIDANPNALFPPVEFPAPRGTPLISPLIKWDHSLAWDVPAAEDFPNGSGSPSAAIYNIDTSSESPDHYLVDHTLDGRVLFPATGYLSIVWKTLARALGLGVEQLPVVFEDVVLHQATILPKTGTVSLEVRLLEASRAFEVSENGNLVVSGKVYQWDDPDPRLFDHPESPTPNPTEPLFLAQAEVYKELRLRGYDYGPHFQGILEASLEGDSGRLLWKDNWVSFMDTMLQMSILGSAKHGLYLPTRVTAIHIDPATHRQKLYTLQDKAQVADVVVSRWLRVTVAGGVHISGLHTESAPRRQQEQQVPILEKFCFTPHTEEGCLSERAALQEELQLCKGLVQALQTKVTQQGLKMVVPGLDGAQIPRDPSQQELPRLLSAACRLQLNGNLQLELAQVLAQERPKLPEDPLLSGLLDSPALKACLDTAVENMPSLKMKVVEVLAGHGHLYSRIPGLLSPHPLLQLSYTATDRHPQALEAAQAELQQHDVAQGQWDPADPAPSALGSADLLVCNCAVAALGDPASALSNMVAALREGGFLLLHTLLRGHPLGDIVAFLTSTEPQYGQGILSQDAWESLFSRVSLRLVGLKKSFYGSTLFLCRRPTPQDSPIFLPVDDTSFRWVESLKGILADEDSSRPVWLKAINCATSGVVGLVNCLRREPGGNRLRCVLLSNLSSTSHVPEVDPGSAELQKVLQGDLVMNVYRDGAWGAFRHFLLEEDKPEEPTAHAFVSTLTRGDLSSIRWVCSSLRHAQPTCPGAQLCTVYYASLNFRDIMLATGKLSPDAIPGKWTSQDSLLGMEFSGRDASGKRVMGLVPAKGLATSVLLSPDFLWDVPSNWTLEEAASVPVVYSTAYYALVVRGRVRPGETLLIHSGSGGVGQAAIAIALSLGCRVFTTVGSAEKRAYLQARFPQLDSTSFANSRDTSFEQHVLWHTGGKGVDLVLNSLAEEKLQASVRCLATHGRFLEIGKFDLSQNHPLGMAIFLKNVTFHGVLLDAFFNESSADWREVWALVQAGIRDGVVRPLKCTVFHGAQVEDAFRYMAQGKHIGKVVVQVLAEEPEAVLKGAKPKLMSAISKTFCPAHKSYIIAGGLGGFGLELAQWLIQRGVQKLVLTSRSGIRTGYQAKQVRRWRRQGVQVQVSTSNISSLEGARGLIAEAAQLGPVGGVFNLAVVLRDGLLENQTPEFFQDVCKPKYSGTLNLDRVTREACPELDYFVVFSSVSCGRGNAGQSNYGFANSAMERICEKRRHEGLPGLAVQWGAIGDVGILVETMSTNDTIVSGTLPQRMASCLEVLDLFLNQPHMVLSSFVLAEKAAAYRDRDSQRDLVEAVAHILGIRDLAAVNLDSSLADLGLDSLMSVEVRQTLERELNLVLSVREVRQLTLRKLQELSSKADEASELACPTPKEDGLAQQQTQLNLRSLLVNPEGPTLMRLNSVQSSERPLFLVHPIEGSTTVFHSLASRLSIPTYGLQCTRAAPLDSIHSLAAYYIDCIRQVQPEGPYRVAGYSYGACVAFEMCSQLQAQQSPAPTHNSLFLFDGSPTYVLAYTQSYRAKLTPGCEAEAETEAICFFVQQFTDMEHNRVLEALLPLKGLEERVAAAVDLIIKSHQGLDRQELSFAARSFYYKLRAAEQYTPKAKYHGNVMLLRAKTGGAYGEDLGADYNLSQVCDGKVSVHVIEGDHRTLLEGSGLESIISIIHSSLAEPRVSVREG
Description: Inhibition of human full length FASN using [3H]-acetyl-CoA/malonyl-CoA as substrate after 60 mins in presence of NADPH by scintillation proximity assay

Sequence of Cytochrome P450 1A2 (P05177 whole entry): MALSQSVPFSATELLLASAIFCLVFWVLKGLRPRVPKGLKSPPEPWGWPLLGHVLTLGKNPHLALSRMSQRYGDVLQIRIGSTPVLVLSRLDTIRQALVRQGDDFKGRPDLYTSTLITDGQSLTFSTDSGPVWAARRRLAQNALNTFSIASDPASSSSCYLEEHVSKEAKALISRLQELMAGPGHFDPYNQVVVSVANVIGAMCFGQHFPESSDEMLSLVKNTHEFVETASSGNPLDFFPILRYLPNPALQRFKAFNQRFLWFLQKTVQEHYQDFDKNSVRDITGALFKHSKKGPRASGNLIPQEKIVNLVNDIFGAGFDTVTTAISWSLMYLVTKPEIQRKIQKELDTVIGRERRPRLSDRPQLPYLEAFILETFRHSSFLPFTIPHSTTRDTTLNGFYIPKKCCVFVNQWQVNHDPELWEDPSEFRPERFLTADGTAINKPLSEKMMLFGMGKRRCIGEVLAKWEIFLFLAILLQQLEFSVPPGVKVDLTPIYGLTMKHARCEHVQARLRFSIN

Cn1cc(-c2ccc(-c3ccc(C4=NC5(CC5)C(=O)N4C[C@@H]4CCN(C(=O)C5CC5)C4)cc3)cc2)cn1
EC50 [1]: 3.02 µM
IC50 [2]: > 10 µM
EC50 [3]: > 10 µM
EC50 [4]: 120 nM
EC50 [5]: 7.94 µM
EC50 [6]: 66 nM
EC50 [7]: 190 nM
EC50 [8]: 13 nM
bioavailability [9]: 60.6%
EC50 [10]: 3.72 µM
Cmax [11]: 2030 ng/mL
half-life [12]: 150 min
IC50 [13]: > 10 µM
AUC [14]: 11100 ng·h/mL
EC50 [15]: 9.33 µM
EC50 [16]: 20 nM
EC50 [17]: 25 nM
EC50 [18]: 6.76 µM
Stability [19]: Stable
EC50 [20]: 590 nM
Stability [21]: Stable
EC50 [22]: > 10 µM
IC50 [23]: 7.9 µM
EC50 [24]: 59 nM
Tmax [25]: 2 h
IC50 [26]: > 10 µM
EC50 [27]: 55 nM
EC50 [28]: > 10 µM
EC50 [29]: > 10 µM
Papp [30]: 7.1 ×10⁻⁶ cm/s
EC50 [31]: 36 nM
fraction unbound [32]: 0.059
EC50 [33]: 110 nM
EC50 [34]: 170 nM
EC50 [35]: > 10 µM
IC50 [36]: > 10 µM
EC50 [37]: 26 nM
EC50 [38]: 9.33 µM
EC50 [39]: 6.31 µM
EC50 [40]: > 10 µM
EC50 [41]: > 10 µM
EC50 [42]: > 10 µM
EC50 [43]: > 10 µM
EC50 [44]: > 10 µM
IC50 [45]: > 10 µM
fraction unbound [46]: 0.034

O=C([C@H]1CCCO1)N1CC[C@@H](CN2C(=O)C3(CC3)N=C2c2ccc(-c3ccc4occc4c3)cc2)C1
IC50 [47]: 300 nM

O=C(N1CC[C@@H](CN2C(=O)C3(CC3)N=C2c2ccc(-c3ccc4occc4c3)cc2)C1)C1(O)CC1
IC50 [47]: 36 nM

O=C(CC(F)(F)F)N1CC[C@@H](CN2C(=O)C3(CC3)N=C2c2ccc(-c3ccc4occc4c3)cc2)C1
IC50 [47]: 170 nM

O=C(C1CC1)N1CC[C@@H](CN2C(=O)C3(CC3)N=C2c2ccc(-c3ccc(-c4ccncc4)cc3)cc2)C1
IC50 [47]: 23 nM

Cn1ccc(C(=O)N2CC[C@@H](CN3C(=O)C4(CC4)N=C3c3ccc(-c4ccc5occc5c4)cc3)C2)n1
IC50 [47]: 450 nM

CC1(C(=O)N2CC[C@@H](CN3C(=O)C4(CC4)N=C3c3ccc(-c4ccc5occc5c4)cc3)C2)CC1
IC50 [47]: 28 nM

Cn1ncc2cc(-c3cnc(C4=NC5(CC5)C(=O)N4C[C@@H]4CCN(C(=O)C5CC5)C4)nc3)ccc21
IC50 [47]: 33100 nM

O=C([C@@H]1CCCO1)N1CC[C@@H](CN2C(=O)C3(CC3)N=C2c2ccc(-c3ccc4occc4c3)cc2)C1
IC50 [47]: 79 nM

N#CC1(C(=O)N2CC[C@@H](CN3C(=O)C4(CC4)N=C3c3ccc(-c4ccc5occc5c4)cc3)C2)CC1
IC50 [47]: 590 nM

Source: ChEMBL document CHEMBL4118196, “Design and synthesis of a series of bioavailable fatty acid synthase (FASN) KR domain inhibitors for cancer therapy” (Bioorg Med Chem Lett, 2018)
